Consider 3 compounds from ChEMBL document CHEMBL2440104, “Synthesis and Biological Evaluation of the First Example of NO-Donor Histone Deacetylase Inhibitor” (ACS Med Chem Lett, 2013).

The source made the active and inactive calls. The rule behind the calls is not given here.

Test [1] addresses Histone deacetylase 4 (Homo sapiens) (UniProt P56524). Description: Induction of HDAC4 nuclear shuttling in human HaCaT cells at 10 uM after 1 hr by immunofluorescence method relative to DMSO-treated control. Type of test: cell-based.
The test system of test [2] is C2C12. Description: Modulation of mouse C2C12 cell proliferation at 0.1 uM after 72 hrs. The class given is functional, cell-based.
The test system of test [3] is HaCaT. Description: Induction of NO release in human HaCaT cells at 10 uM after 1 to 5 hrs by DAF-2D-based FACS analysis relative to DMSO-treated control. Type of test: functional, cell-based.
Test [4] has as its target T1, Histone deacetylase (Homo sapiens) (UniProt Q13547+O15379+Q9UBN7+Q92769+Q9UQL6+Q8WUI4+Q9BY41+Q96DB2+P56524+Q9UKV0+Q969S8). The test can be described thus: Effect on HDAC in human HaCaT cells assessed as downregulation of miR-505# at 10 uM after 1 hr by RT-PCR analysis. The class given is cell-based.
Test [5] has as its target T1, Histone deacetylase (Homo sapiens). The test can be described thus: Inhibition of HDAC activity in human HaCaT cell lysate at 50 uM after 1 hr by colorimetry. The class given is cell-free.
For test [6] the target is unchanged. Description: Effect on HDAC in human HaCaT cells assessed as upregulation of miR-30d# at 10 uM after 1 hr by RT-PCR analysis. Type of test: cell-based.
The target is the same in test [7]. The test can be described thus: Effect on HDAC in human HaCaT cells assessed as downregulation of miR-106b# at 10 uM after 1 hr by RT-PCR analysis. The class given is cell-based.
Test [8] relates to C2C12. The test can be described thus: Increase in mouse C2C12 cell proliferation at 0.1 uM after 72 hrs. Type of test: functional, cell-based.
In test [9] the target is T1, Histone deacetylase (Homo sapiens). Description: Effect on HDAC in human HaCaT cells assessed as downregulation of miR-378 at 10 uM after 1 hr by RT-PCR analysis. Type of test: cell-based.
For test [10] the target is unchanged. Description: Effect on HDAC in human HaCaT cells assessed as upregulation of miR-1296 at 10 uM after 1 hr by RT-PCR analysis. The class given is cell-based.
Test [11] has the same target. Conditions: HaCaT, at 1 to 50 µM.
Description: Inhibition of HDAC activity in human HaCaT cell lysate at 1 to 50 uM after 1 hr by colorimetry
Test [12] shares this target. Description: Effect on HDAC in human HaCaT cells assessed as upregulation of miR-1305 at 10 uM after 1 hr by RT-PCR analysis. Type of test: cell-based.
For test [13] the target is unchanged. The test can be described thus: Effect on HDAC in human HaCaT cells assessed as downregulation of miR-99b# at 10 uM after 1 hr by RT-PCR analysis. Type of test: cell-based.
For test [14] the target is unchanged. The test can be described thus: Effect on HDAC in human HaCaT cells assessed as downregulation of miR-1254 at 10 uM after 1 hr by RT-PCR analysis. The class given is cell-based.
The target is the same in test [15]. Description: Effect on HDAC in human HaCaT cells assessed as downregulation of miR-27a# at 10 uM after 1 hr by RT-PCR analysis. Type of test: cell-based.
The target of test [16] is Histone deacetylase 2 (Homo sapiens) (UniProt Q92769). The test can be described thus: Induction of HDAC2 cysteine S-nitrosylation in human HaCaT cells at 10 uM after 1 hr by immunoprecipitation method in prsence of NO scavenger PTIO. Type of test: cell-based.
Histone deacetylase 2 (Homo sapiens), sequence (Q92769 whole entry): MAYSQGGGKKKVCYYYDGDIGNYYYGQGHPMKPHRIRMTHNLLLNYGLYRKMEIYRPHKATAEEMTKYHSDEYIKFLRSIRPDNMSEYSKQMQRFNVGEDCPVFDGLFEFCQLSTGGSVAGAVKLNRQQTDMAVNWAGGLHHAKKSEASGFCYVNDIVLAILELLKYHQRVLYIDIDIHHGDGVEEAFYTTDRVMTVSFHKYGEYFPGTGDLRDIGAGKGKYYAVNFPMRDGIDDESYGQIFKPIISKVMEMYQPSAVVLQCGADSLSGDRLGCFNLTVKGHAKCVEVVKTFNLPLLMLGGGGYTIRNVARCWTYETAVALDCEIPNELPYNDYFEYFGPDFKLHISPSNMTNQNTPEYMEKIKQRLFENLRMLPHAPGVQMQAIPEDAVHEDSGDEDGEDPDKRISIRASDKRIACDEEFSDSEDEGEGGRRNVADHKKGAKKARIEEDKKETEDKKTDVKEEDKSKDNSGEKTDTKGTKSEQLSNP
The target of test [17] is T1, Histone deacetylase (Homo sapiens). The test can be described thus: Effect on HDAC in human HaCaT cells assessed as upregulation of miR-192# at 10 uM after 1 hr by RT-PCR analysis. Type of test: cell-based.
The subject of test [18] is C2C12. Description: Induction of myogenic differentiation in mouse C2C12 cells assessed as increase in number of nuclei per fiber at 0.1 uM after 7 days by immunofluorescence microscopy. Type of test: functional, cell-based.
The target of test [19] is Histone deacetylase 2 (Homo sapiens) (UniProt Q92769). The test can be described thus: Induction of HDAC2 cysteine S-nitrosylation in human HaCaT cells at 10 uM after 1 hr by immunoprecipitation method. The class given is cell-based.
Test [20] has as its target T1, Histone deacetylase (Homo sapiens). The test can be described thus: Effect on HDAC in human HaCaT cells assessed as downregulation of miR-200a# at 10 uM after 1 hr by RT-PCR analysis. The class given is cell-based.
Test [21] shares this target. The test can be described thus: Effect on HDAC in human HaCaT cells assessed as downregulation of miR-33a# at 10 uM after 1 hr by RT-PCR analysis. The class given is cell-based.
The target is the same in test [22]. The test can be described thus: Effect on HDAC in human HaCaT cells assessed as upregulation of miR-409-3p at 10 uM after 1 hr by RT-PCR analysis. Type of test: cell-based.
Test [23] has the same target. The test can be described thus: Effect on HDAC in human HaCaT cells assessed as upregulation of miR-18a# at 10 uM after 1 hr by RT-PCR analysis. The class given is cell-based.
Test [24] relates to HaCaT. The test can be described thus: Induction of NO release in human HaCaT cells assessed as Production of [3H]cGMP after 1 hr by liquid scintillation counting. The class given is functional, cell-based.
Test [25] addresses T1, Histone deacetylase (Homo sapiens). Description: Effect on HDAC in human HaCaT cells assessed as downregulation of miR-19b-1 at 10 uM after 1 hr by RT-PCR analysis. Type of test: cell-based.
Test [26] has as its system C2C12. Description: Induction of myogenic differentiation in mouse C2C12 cells assessed as MHC-positive fibers at 0.1 uM after 7 days by immunofluorescence microscopy. The class given is functional, cell-based.

Histone deacetylase 4 (Homo sapiens), sequence (P56524 whole entry): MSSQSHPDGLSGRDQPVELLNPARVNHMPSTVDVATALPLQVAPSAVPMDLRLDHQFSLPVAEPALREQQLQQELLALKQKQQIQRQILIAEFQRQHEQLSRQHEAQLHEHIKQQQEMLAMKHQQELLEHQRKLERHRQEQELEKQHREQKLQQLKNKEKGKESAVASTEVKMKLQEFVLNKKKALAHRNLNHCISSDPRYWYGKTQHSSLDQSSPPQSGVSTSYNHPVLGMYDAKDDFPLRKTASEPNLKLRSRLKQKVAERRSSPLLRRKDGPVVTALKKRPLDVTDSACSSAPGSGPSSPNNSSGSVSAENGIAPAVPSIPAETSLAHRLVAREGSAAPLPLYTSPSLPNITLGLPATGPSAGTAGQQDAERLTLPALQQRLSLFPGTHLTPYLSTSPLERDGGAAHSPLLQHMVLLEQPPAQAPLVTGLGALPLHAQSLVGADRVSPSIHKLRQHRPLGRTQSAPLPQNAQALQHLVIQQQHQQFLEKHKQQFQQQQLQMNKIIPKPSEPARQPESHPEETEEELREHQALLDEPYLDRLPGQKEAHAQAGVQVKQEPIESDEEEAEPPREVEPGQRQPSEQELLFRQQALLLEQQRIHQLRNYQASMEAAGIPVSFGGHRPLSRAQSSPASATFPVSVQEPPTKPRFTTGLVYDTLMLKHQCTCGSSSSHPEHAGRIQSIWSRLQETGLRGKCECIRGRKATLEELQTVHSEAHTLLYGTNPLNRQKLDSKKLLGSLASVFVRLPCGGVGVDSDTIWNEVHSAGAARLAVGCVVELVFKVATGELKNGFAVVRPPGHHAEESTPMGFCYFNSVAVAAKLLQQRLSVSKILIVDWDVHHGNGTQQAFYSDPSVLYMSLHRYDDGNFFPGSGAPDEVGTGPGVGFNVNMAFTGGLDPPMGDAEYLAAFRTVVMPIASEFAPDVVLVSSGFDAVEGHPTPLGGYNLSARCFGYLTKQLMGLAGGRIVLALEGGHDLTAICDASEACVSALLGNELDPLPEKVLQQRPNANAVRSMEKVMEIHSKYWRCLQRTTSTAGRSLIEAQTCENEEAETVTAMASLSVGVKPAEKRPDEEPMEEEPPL

For `Nc1ccccc1NC(=O)c1ccc(CNC(=O)OCc2cccnc2)cc1`, the result (in test [1]; in the test on HaCaT [3]) was inactive. Also, the outcome with C2C12 [2] was Active.

In the case of `CN(C)Cc1no[n+]([O-])c1C#N`, the result (in test [1]; in test [4]; in test [6]; in the test with HaCaT [3]; in test [7]; in the test on C2C12 [8]) was Active. Further, the outcome in test [9] and in test [10] was Active. The inhibition entry in test [5] was “Active”.

Regarding `CN(Cc1ccc(COC(=O)NCc2ccc(C(=O)Nc3ccccc3N)cc2)cn1)Cc1no[n+]([O-])c1C#N`, the outcome (in [1]; in test [12]; in test [13]; in test [14]; in [15]; with C2C12 [2]) was Active. The result (in test [17]; with C2C12 [18]; in test [19]; in the test on HaCaT [3]; in test [7]; in [20]) was Active. The outcome (in test [21]; in test [22]; in [23]; in [25]; in test [9]; in the test with C2C12 [26]) was Active. The inhibition entry in test [11] is “Active”. Moreover, in test [16], the outcome was inactive. Moreover, in the test on HaCaT [24], the Activity result was “Dose-dependent effect”.
